Holding throughout (assay type): biochemical
One test concerns the target T1, cathepsin L (Homo sapiens, UniProt P07711).
T1 construct: cathepsin L—isolated from human liver; purchased Calbiochem 219402; host or cells: human liver (tissue isolate)
The experiment in a line: Cathepsin L enzyme inhibition in vitro (kinetic fluorescence assay). To be noted: Ki(cathepsin L)/Ki(calpain) ratio. In short, it runs like this:
(§1)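 Kinetic fluorescence (ex 390/em 460 nm), RT. Calpain-I: 20 nM erythrocyte-derived, 100 μM Suc-Leu-Tyr-AMC, imidazole/CaCl2, pH 7.3. Cathepsins, pH 6.0 MES/EDTA/cysteine: B 0.25 nM liver, 100 μM Z-Phe-Arg-AMC; L 1 nM liver, 2 μM Z-Phe-Arg-AMC; S 0.5 nM recombinant, 20 μM Z-Val-Val-Arg-AMC. Cheng-Prusoff Ki, mean of 2–4 curves.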

A further test has as its target T2, cathepsin K (Homo sapiens, UniProt P43235).
T2 construct: purchased Calbiochem 342001; host or cells: E. coli
T2 sequence (P43235 115-329): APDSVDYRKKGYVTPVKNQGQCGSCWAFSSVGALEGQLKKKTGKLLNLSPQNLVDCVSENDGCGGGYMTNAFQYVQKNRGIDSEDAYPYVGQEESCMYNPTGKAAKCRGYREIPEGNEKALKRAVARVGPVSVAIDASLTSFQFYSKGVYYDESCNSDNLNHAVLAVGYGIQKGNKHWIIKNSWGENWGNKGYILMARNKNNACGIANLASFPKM
The experiment in a line: Cathepsin K enzyme inhibition in vitro (kinetic fluorescence assay). To be noted: Ki(cathepsin K)/Ki(calpain) ratio. As to the method: (§2) Testing for blockade of the corresponding enzymic activities was carried out by means of kinetic fluorescence assays (excitation 390 nm, emission 460 nm).
(§3) Apparent Ki values were calculated from the experimentally determined IC50 values by the Cheng-Prussoff relation assuming a reversible competitive enzyme inhibition. The Km values of the substrates used under the assay conditions indicated above were: 90 μM (Z-Phe-Arg-AMC, cathepsin B), 10 μM (Z-Gly-Pro-Arg-AMC, cathepsin K), 2 μM (Z-Phe-Arg-AMC, cathepsin L), and 30 μM (Z-Val-Val-Arg-AMC, cathepsin S).
(§4) The indicated Ki values are averages of the inhibition constants calculated on the basis of 2 to 4 independent dose-effect plots.
(§5) • 1. Calpain I: • 20 nM calpain-I—isolated from human erythrocytes (Calbiochem #208713), 100 μM Suc-Leu-Tyr-AMC (Bachem #1-1355) as substrate in buffer with 62 mM imidazole, 0.3 mM CaCl2, 0.10% CHAPS, 0.05% BSA, 1 mM DTT at pH 7.3 and room temperature. • 2. Cathepsin B: • 0.25 nM cathepsin B—isolated from human liver (Calbiochem #219362), 100 μM Z-Phe-Arg-AMC (Bachem #1-1160) as substrate 50 mM MES, 2 mM EDTA, 0.05% Brij 35, 2.5 mM L-cysteine, pH 6.0, room temperature. • 3. Cathepsin K: • 3 nM cathepsin K—activated from recombinant human procathepsin K from E. coli (Calbiochem #342001), 10 μM Z-Gly-Pro-Arg-AMC (Biomol #P-142) as substrate in 50 mM MES, 2 mM EDTA, 0.05% Brij 35, 2.5 mM L-cysteine, pH 6.0, room temperature. • 4. Cathepsin L: • 1 nM cathepsin L—isolated from human liver (Calbiochem #219402), 2 μM Z-Phe-Arg-AMC (Bachem #1-1160) as substrate in 50 mM MES, 2 mM EDTA, 0.05% Brij 35, 2.5 mM L-cysteine, pH 6.0, room temperature. • 5. Cathepsin S: • 0.5 nM recombinant human cathepsin S from E. coli (Calbiochem #219343), 20 μM Z-Val-Val-Arg-AMC (Bachem #1-1540) as substrate in 50 mM MES, 2 mM EDTA, 0.05% Brij 35, 2.5 mM L-cysteine, pH 6.0, room temperature.

The next test deals with T3, cathepsin S (Homo sapiens, UniProt P25774).
T3 construct: purchased Calbiochem 219343; host or cells: E. coli
The experiment in a line: Cathepsin S enzyme inhibition in vitro (kinetic fluorescence assay). To be noted: Ki(cathepsin S)/Ki(calpain) ratio. In short, it runs like this: as §1

The next test has as its target T4, cathepsin B (Homo sapiens, UniProt P07858).
T4 construct: cathepsin B—isolated from human liver; purchased Calbiochem 219362; host or cells: human liver (tissue isolate)
The experiment in a line: Cathepsin B enzyme inhibition in vitro (kinetic fluorescence assay). To be noted: Ki(cathepsin B)/Ki(calpain) ratio. Here is the method:
as §2, §3, §4, §5

T3 sequence (P25774 115-331): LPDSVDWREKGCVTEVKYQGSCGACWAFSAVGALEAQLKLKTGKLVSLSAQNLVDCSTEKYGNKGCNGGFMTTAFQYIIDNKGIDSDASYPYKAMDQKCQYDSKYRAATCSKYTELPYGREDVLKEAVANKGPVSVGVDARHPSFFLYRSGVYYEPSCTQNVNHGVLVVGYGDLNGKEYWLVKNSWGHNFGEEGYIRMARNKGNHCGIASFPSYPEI
T1 sequence (P07711 114-333): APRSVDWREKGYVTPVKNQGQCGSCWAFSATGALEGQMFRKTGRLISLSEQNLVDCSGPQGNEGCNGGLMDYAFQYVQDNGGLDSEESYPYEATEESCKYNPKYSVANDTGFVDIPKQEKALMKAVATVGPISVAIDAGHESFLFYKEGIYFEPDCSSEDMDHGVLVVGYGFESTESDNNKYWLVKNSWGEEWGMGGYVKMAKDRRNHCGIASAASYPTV

As for `NC(=O)C(=O)C(Cc1ccccc1)NC(=O)c1cccnc1-n1ccc(-c2cccc(C(F)(F)F)c2Cl)n1` (centres unmarked) [Example 155, N-[3-Amino-2,3-dioxo-1-(phenylmethyl)propyl]-2-{3-[2-chloro-3-(trifluoromethyl)phenyl]-1H-pyrazol-1-yl}pyridine-3-carboxamide], on cathepsin L, the “Sel cat. L” value is listed as “++ (++ means a Ki(cathepsin L)/Ki(calpain) ratio of ≧50)”. Also, the “Sel cat. K” value on cathepsin K was “++ (++ means a Ki(cathepsin K)/Ki(calpain) ratio of ≧30)”. The “Sel cat. S” value on cathepsin S is “++ (++ means a Ki(cathepsin S)/Ki(calpain) ratio of ≧100)”. For the same compound, the “Sel cat. B” value on cathepsin B is listed as “++ (++ means a Ki(cathepsin B)/Ki(calpain) ratio of ≧30)”.

As for `NC(=O)C(=O)C(Cc1ccccc1)NC(=O)c1cccnc1-n1cc(Cl)c(-c2ccc(F)cc2)n1` (centres unmarked) [Example 184, N-[3-Amino-2,3-dioxo-1-(phenylmethyl)propyl]-2-[4-chloro-3-(4-fluorophenyl)-1H-pyrazol-1-yl]pyridine-3-carboxamide], the “Sel cat. L” value on cathepsin L was “++ (++ means a Ki(cathepsin L)/Ki(calpain) ratio of ≧50)”. On cathepsin K, the “Sel cat. K” value is recorded as “+ (+ means 10≦Ki(cathepsin K)/Ki(calpain)<30)”. In addition, at cathepsin S, the “Sel cat. S” value was “++ (++ means a Ki(cathepsin S)/Ki(calpain) ratio of ≧100)”. Also, the “Sel cat. B” value at cathepsin B is given as “+ (+ means 10≦Ki(cathepsin B)/Ki(calpain)<30)”.

Consider `NC(=O)C(=O)C(Cc1ccccc1)NC(=O)c1cccnc1-n1ccc(-c2ccccc2OC(F)F)n1` (centres unmarked) [Example 166, N-[3-Amino-2,3-dioxo-1-(phenylmethyl)propyl]-2-(3-{2-[(difluoromethyl)oxy]phenyl}-1H-pyrazol-1-yl)pyridine-3-carboxamide], for which, at cathepsin L, the “Sel cat. L” value was “++ (++ means a Ki(cathepsin L)/Ki(calpain) ratio of ≧50)”. For the same compound, at cathepsin K, the “Sel cat. K” value was “++ (++ means a Ki(cathepsin K)/Ki(calpain) ratio of ≧30)”. In addition, the “Sel cat. S” value on cathepsin S was “++ (++ means a Ki(cathepsin S)/Ki(calpain) ratio of ≧100)”. The “Sel cat. B” value on cathepsin B was “+ (+ means 10≦Ki(cathepsin B)/Ki(calpain)<30)”.

Consider `NC(=O)C(=O)C(Cc1ccccc1)NC(=O)c1cccnc1-n1ccc(-c2c(F)ccc(Cl)c2Cl)n1` (centres unmarked) [Example 120, N-[3-Amino-2,3-dioxo-1-(phenylmethyl)propyl]-2-[3-(2,3-dichloro-6-fluorophenyl)-1H-pyrazol-1-yl]pyridine-3-carboxamide], for which the “Sel cat. L” value at cathepsin L is given as “+ (+ means 30≦Ki(cathepsin L)/Ki(calpain)<50)”. In addition, at cathepsin K, the “Sel cat. K” value is recorded as “++ (++ means a Ki(cathepsin K)/Ki(calpain) ratio of ≧30)”. On cathepsin S, the “Sel cat. S” value is on record as “++ (++ means a Ki(cathepsin S)/Ki(calpain) ratio of ≧100)”. Moreover, the “Sel cat. B” value at cathepsin B is on record as “++ (++ means a Ki(cathepsin B)/Ki(calpain) ratio of ≧30)”.

In the case of `NC(=O)C(=O)C(Cc1ccccc1)NC(=O)c1cccnc1-n1ccc(-c2ccccc2C(F)(F)F)n1` (centres unmarked) [Example 72, N-(3-Amino-1-benzyl-2,3-dioxopropyl)-2-{3-[2-(trifluoromethyl)phenyl]-1H-pyrazol-1-yl}nicotinamide], the “Sel cat. L” value at cathepsin L is reported as “+ (+ means 30≦Ki(cathepsin L)/Ki(calpain)<50)”. Moreover, the “Sel cat. K” value on cathepsin K is on record as “+ (+ means 10≦Ki(cathepsin K)/Ki(calpain)<30)”. Moreover, the “Sel cat. S” value at cathepsin S is “++ (++ means a Ki(cathepsin S)/Ki(calpain) ratio of ≧100)”. For the same compound, on cathepsin B, the “Sel cat. B” value is listed as “+ (+ means 10≦Ki(cathepsin B)/Ki(calpain)<30)”.

For the compound `NC(=O)C(=O)C(Cc1ccccc1)NC(=O)c1cccnc1-n1ccc(-c2ccc(F)cc2Cl)n1` (centres unmarked) [Example 71, N-(3-Amino-1-benzyl-2,3-dioxopropyl)-2-[3-(2-chloro-4-fluorophenyl)-1H-pyrazol-1-yl]nicotinamide], at cathepsin L, the “Sel cat. L” value is “++ (++ means a Ki(cathepsin L)/Ki(calpain) ratio of ≧50)”. In addition, on cathepsin K, the “Sel cat. K” value is “++ (++ means a Ki(cathepsin K)/Ki(calpain) ratio of ≧30)”. Moreover, the “Sel cat. S” value at cathepsin S is recorded as “++ (++ means a Ki(cathepsin S)/Ki(calpain) ratio of ≧100)”. For the same compound, at cathepsin B, the “Sel cat. B” value was “++ (++ means a Ki(cathepsin B)/Ki(calpain) ratio of ≧30)”.

Consider `NC(=O)C(=O)C(Cc1ccccc1)NC(=O)c1cccnc1-n1ccc(-c2ccc(Cl)cc2Cl)n1` (centres unmarked) [Example 79, N-(3-Amino-1-benzyl-2,3-dioxopropyl)-2-[3-(2,4-dichlorophenyl)-1H-pyrazol-1-yl]nicotinamide], for which the “Sel cat. L” value on cathepsin L is “++ (++ means a Ki(cathepsin L)/Ki(calpain) ratio of ≧50)”. Also, the “Sel cat. K” value at cathepsin K is reported as “++ (++ means a Ki(cathepsin K)/Ki(calpain) ratio of ≧30)”. Moreover, on cathepsin S, the “Sel cat. S” value is listed as “++ (++ means a Ki(cathepsin S)/Ki(calpain) ratio of ≧100)”. In addition, on cathepsin B, the “Sel cat. B” value is “++ (++ means a Ki(cathepsin B)/Ki(calpain) ratio of ≧30)”.

`COc1ccc(-c2ccn(-c3ncccc3C(=O)NC(Cc3ccccc3)C(=O)C(N)=O)n2)cc1` (centres unmarked) [Example 48, N-(3-Amino-1-benzyl-2,3-dioxopropyl)-2-[3-(4-methoxyphenyl)-1H-pyrazol-1-yl]nicotinamide]: at cathepsin L, the “Sel cat. L” value is given as “++ (++ means a Ki(cathepsin L)/Ki(calpain) ratio of ≧50)”. Further, at cathepsin K, the “Sel cat. K” value is on record as “+ (+ means 10≦Ki(cathepsin K)/Ki(calpain)<30)”. The “Sel cat. S” value on cathepsin S is reported as “++ (++ means a Ki(cathepsin S)/Ki(calpain) ratio of ≧100)”. Moreover, on cathepsin B, the “Sel cat. B” value is “+ (+ means 10≦Ki(cathepsin B)/Ki(calpain)<30)”.

As for `COc1cc(Cl)ccc1-c1ccn(-c2ncccc2C(=O)NC(Cc2ccccc2)C(=O)C(N)=O)n1` (centres unmarked) [Example 139, N-[3-Amino-2,3-dioxo-1-(phenylmethyl)propyl]-2-{3-[4-chloro-2-(methyloxy)phenyl]-1H-pyrazol-1-yl}pyridine-3-carboxamide], the “Sel cat. L” value on cathepsin L is on record as “++ (++ means a Ki(cathepsin L)/Ki(calpain) ratio of ≧50)”. For the same compound, the “Sel cat. K” value on cathepsin K is reported as “++ (++ means a Ki(cathepsin K)/Ki(calpain) ratio of ≧30)”. The “Sel cat. S” value on cathepsin S was “++ (++ means a Ki(cathepsin S)/Ki(calpain) ratio of ≧100)”. In addition, the “Sel cat. B” value at cathepsin B is listed as “+ (+ means 10≦Ki(cathepsin B)/Ki(calpain)<30)”.

Consider `NC(=O)C(=O)C(Cc1ccccc1)NC(=O)c1cccnc1-n1cc2c(n1)-c1ccccc1OC2` (centres unmarked) [Example 100, N-[3-Amino-2,3-dioxo-1-(phenylmethyl)propyl]-2-chromeno[4,3-c]pyrazol-2(4H)-ylpyridine-3-carboxamide], for which, on cathepsin L, the “Sel cat. L” value is listed as “++ (++ means a Ki(cathepsin L)/Ki(calpain) ratio of ≧50)”. For the same compound, at cathepsin K, the “Sel cat. K” value is “++ (++ means a Ki(cathepsin K)/Ki(calpain) ratio of ≧30)”. For the same compound, the “Sel cat. S” value on cathepsin S is “++ (++ means a Ki(cathepsin S)/Ki(calpain) ratio of ≧100)”. In addition, the “Sel cat. B” value on cathepsin B was “+ (+ means 10≦Ki(cathepsin B)/Ki(calpain)<30)”.

For the compound `NC(=O)C(=O)C(Cc1ccccc1)NC(=O)c1cccnc1-n1ccc(C23CC4CC(CC(C4)C2)C3)n1` (centres unmarked) [Example 193, N-[3-Amino-2,3-dioxo-1-(phenylmethyl)propyl]-2-(3-tricyclo[3.3.1.1^3,7]dec-1-yl-1H-pyrazol-1-yl)pyridine-3-carboxamide], the “Sel cat. L” value at cathepsin L was “++ (++ means a Ki(cathepsin L)/Ki(calpain) ratio of ≧50)”. For the same compound, the “Sel cat. K” value on cathepsin K is on record as “++ (++ means a Ki(cathepsin K)/Ki(calpain) ratio of ≧30)”. Further, the “Sel cat. S” value at cathepsin S is “++ (++ means a Ki(cathepsin S)/Ki(calpain) ratio of ≧100)”. The “Sel cat. B” value on cathepsin B is given as “++ (++ means a Ki(cathepsin B)/Ki(calpain) ratio of ≧30)”.

Consider `COc1ccc(OC)c(-c2ccn(-c3ncccc3C(=O)NC(Cc3ccccc3)C(=O)C(N)=O)n2)c1` (centres unmarked) [Example 151, N-[3-Amino-2,3-dioxo-1-(phenylmethyl)propyl]-2-{3-[2,5-bis(methyloxy)phenyl]-1H-pyrazol-1-yl}pyridine-3-carboxamide], for which the “Sel cat. L” value at cathepsin L is “++ (++ means a Ki(cathepsin L)/Ki(calpain) ratio of ≧50)”. For the same compound, at cathepsin K, the “Sel cat. K” value is “++ (++ means a Ki(cathepsin K)/Ki(calpain) ratio of ≧30)”. The “Sel cat. B” value on cathepsin B is “++ (++ means a Ki(cathepsin B)/Ki(calpain) ratio of ≧30)”.

These data come from US9139557B2, “Carboxamide compounds and their use as calpain inhibitors” (Abbott GmbH & Co. KG, priority 2006, dated 2015).
